One may read the IC50 as the concentration that inhibits the measured activity by half. A high value points to weaker potency in that assay.

Experiment [1] has as its system KB. Kind of experiment: Cytotoxicity in KB VP-16 R cancer cell line. It counts as functional, cell-based. The note with it: Homo sapiens.
The test system of experiment [2] is KB. In words: Cytotoxicity in KB cancer cell line. It counts as functional, cell-based. The following applies: Homo sapiens.
A short description of experiment [3]: Compound was tested for the production of cellular protein-linked DNA breaks when administered at a dose of 25 ug/mL. Type of experiment: functional.
The test system of experiment [4] is SW480. In words: Cytotoxicity in SW480 cancer cell line. Type of experiment: functional, cell-based. The note with it: Homo sapiens.
The subject of experiment [5] is HepG2. In words: Cytotoxicity in HepG2-T14 cancer cell line. It counts as functional, cell-based. The following applies: Homo sapiens.
The target in experiment [6] is T1, DNA topoisomerase 1 (Homo sapiens) (UniProt P11387).
T1 sequence (whole entry): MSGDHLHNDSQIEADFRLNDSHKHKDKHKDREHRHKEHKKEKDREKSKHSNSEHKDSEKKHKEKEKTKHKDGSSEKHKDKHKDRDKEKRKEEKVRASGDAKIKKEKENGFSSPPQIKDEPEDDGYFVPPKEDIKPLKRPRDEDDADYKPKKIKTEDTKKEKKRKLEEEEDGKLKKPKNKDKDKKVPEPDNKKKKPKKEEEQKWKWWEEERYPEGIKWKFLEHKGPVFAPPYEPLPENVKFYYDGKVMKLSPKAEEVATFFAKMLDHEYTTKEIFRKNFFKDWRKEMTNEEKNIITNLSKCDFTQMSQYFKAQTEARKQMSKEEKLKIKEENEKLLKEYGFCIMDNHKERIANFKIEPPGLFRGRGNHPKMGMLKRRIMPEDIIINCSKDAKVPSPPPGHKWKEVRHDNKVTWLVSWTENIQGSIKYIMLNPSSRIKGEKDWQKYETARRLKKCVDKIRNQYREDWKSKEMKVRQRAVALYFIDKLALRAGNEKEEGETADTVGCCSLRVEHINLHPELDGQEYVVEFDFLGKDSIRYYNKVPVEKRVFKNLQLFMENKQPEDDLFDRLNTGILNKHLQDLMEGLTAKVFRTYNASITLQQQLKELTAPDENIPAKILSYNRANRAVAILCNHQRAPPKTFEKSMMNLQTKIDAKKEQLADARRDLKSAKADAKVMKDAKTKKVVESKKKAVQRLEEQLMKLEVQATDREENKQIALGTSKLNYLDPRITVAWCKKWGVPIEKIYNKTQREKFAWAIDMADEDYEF
In words: Compound was tested for the inhibition of Topoisomerase I when administered at a dose of 25 ug/mL.

Experiment [7] has as its system MCF7. Kind of experiment: Cytotoxicity in MCF-7 cancer cell line. It counts as functional, cell-based. The note with it: Homo sapiens.
The test system of experiment [8] is KB VCR R. Kind of experiment: Cytotoxicity in KB VCR R cancer cell line. Type of experiment: functional, cell-based. The note with it: Homo sapiens.

Converted amounts (≈) assume the structure as drawn.

For the compound `CC[C@@]1(O)C(=O)OCc2c1cc1n(c2=O)Cc2c-1nc1ccccc1c2/C=N/NC(=O)C(N)CO.Cl` (stereo partly specified), the IC50 was 5 µg/mL in experiment [1]; 0.12 µg/mL in experiment [2]; 1 µg/mL in experiment [4]; 3.5 µg/mL in experiment [5]; 1 µg/mL in experiment [7]; 3 µg/mL in experiment [8]. Besides, the Activity in experiment [3] came to 79.8%. Also, in experiment [6], the Topoisomerase I inhibition relative to reference (%) came to 145%.

On to `CC[C@@]1(O)C(=O)OCc2c1cc1n(c2=O)Cc2c-1nc1ccccc1c2/C=N/NC(=O)C(N)CC(C)C.Cl` (stereo partly specified), for which the IC50 was determined as 1 µg/mL in experiment [1]; 0.1 µg/mL in experiment [2]; 0.04 µg/mL in experiment [4]; 0.4 µg/mL in experiment [5]; 0.15 µg/mL in experiment [7]; 0.4 µg/mL in experiment [8]. Besides, the Activity in experiment [3] was found to be 111.7%. Further, in experiment [6], the Topoisomerase I inhibition relative to reference (%) was 136%.

As for `CC[C@@]1(O)C(=O)OCc2c1cc1n(c2=O)Cc2c-1nc1ccccc1c2/C=N/NC(=O)C(N)CCSC.Cl` (stereo partly specified), the IC50 in experiment [1] was 0.5 µg/mL; in experiment [2] it was 0.1 µg/mL; in experiment [4], 0.8 µg/mL; in experiment [5], 2 µg/mL; in experiment [7], 1 µg/mL; in experiment [8], 0.2 µg/mL. The same compound yielded an Activity in experiment [3] of 111%.

Turning to `CC[C@@]1(O)C(=O)OCc2c1cc1n(c2=O)Cc2cc3ccccc3nc2-1` [CAMPTOTHECIN], the IC50 in experiment [1] was 0.04 µg/mL (≈ 0.115 µM); in experiment [2], 0.01 µg/mL (≈ 0.0287 µM); in experiment [4], 0.01 µg/mL (≈ 0.0287 µM); in experiment [5] it was 0.09 µg/mL (≈ 0.258 µM); in experiment [7], 0.02 µg/mL (≈ 0.0574 µM); in experiment [8], 0.03 µg/mL (≈ 0.0861 µM). Also, the Activity in experiment [3] is 100%.

For the compound `CC[C@@]1(O)C(=O)OCc2c1cc1n(c2=O)Cc2c-1nc1ccccc1c2/C=N/NC(=O)C1CCCN1.Cl` (stereo partly specified), the IC50 amounted to 0.6 µg/mL in experiment [1]; 0.04 µg/mL in experiment [2]; 0.7 µg/mL in experiment [4]; 1.25 µg/mL in experiment [5]; 0.8 µg/mL in experiment [7]; 5 µg/mL in experiment [8]. For the same compound, the Activity in experiment [3] came to 154.6%. In addition, the Topoisomerase I inhibition relative to reference (%) in experiment [6] is 100%.

As to `CC[C@@]1(O)C(=O)OCc2c1cc1n(c2=O)Cc2c-1nc1ccccc1c2/C=N/NC(=O)C(C)N.Cl` (stereo partly specified), the IC50 in experiment [1] came to 5 µg/mL; in experiment [2] it was 0.1 µg/mL; in experiment [4], 0.6 µg/mL; in experiment [5], 2.5 µg/mL; in experiment [7], 1 µg/mL; in experiment [8], 3 µg/mL. The same compound showed an Activity in experiment [3] of 93.7%. In addition, in experiment [6], the Topoisomerase I inhibition relative to reference (%) came to 98%.

Turning to `CC[C@@]1(O)C(=O)OCc2c1cc1n(c2=O)Cc2c-1nc1ccccc1c2/C=N/NC(=O)CN.Cl`, the IC50 in experiment [1] is 3 µg/mL; in experiment [2], 0.1 µg/mL; in experiment [4] it was 0.1 µg/mL; in experiment [5], 0.6 µg/mL; in experiment [7], 0.4 µg/mL; in experiment [8] it was 1 µg/mL. Moreover, the Activity in experiment [3] worked out at 110.3%. In experiment [6], the Topoisomerase I inhibition relative to reference (%) amounted to 116%.

On to `CC[C@@]1(O)C(=O)OCc2c1cc1n(c2=O)Cc2c-1nc1ccccc1c2/C=N/NC(=O)C(N)Cc1ccc(O)cc1.Cl` (stereo partly specified), for which the IC50 in experiment [1] came out at 5 µg/mL; in experiment [2], 0.1 µg/mL; in experiment [4], 0.4 µg/mL; in experiment [5], 1 µg/mL; in experiment [7] it was 5 µg/mL; in experiment [8], 1 µg/mL. In experiment [3], this compound showed an Activity of 181%.
